In patent US20090299044A1 (priority 2006, published 2009):
Bridge positions count the residues as written; N and C are the ends. Peptide text beside a SMILES is read from it.

Key:
[1] = target: T1, human Kv1.3 (CHO) (Homo sapiens, UniProt P22001); test: cell-based
T1 construct: expressed in transfected cells; host or cells: CHO

[2] = target: T2, human Kv1.1 (HEK293) (Homo sapiens, UniProt Q09470); test: cell-based
T2 construct: expressed in transfected cells; host or cells: HEK293
T2 sequence (Q09470 whole entry): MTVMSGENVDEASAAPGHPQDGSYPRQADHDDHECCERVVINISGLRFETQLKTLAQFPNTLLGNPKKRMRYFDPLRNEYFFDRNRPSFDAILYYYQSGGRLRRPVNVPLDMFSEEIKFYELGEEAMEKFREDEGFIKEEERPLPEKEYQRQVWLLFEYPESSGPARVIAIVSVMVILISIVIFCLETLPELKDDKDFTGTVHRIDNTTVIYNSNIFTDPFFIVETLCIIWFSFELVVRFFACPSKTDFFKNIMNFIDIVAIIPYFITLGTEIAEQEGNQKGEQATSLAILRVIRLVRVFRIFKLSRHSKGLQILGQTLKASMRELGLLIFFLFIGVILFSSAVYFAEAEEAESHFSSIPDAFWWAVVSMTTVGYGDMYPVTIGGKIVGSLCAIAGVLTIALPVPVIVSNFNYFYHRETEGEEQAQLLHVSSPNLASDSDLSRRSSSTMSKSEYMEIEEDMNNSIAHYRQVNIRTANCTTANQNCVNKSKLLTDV

T1 sequence (P22001 whole entry): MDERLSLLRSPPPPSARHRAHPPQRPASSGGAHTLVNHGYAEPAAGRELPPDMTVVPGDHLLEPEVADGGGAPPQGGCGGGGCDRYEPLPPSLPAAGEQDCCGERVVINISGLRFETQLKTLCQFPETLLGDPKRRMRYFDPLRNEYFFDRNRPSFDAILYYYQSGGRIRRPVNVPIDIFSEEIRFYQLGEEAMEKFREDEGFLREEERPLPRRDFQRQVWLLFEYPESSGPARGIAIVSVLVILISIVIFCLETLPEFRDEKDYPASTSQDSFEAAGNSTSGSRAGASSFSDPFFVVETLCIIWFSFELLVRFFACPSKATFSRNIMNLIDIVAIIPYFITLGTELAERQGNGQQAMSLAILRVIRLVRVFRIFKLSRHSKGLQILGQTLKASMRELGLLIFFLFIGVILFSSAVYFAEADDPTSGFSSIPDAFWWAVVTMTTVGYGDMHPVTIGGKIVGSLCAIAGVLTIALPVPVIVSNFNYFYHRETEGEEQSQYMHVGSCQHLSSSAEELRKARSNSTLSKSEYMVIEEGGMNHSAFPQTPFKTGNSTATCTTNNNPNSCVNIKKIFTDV

`CC[C@H](C)[C@@H]1NC(=O)[C@H](CCCCN)NC(=O)[C@@H](NC(=O)[C@H](CCCCN)NC(=O)[C@@H](NC(=O)[C@H](CC(N)=O)NC(=O)[C@@H](NC(=O)[C@@H](NC(=O)[C@@H](NC(=O)CN)C(C)C)[C@@H](C)CC)[C@@H](C)CC)C(C)C)CSSC[C@@H]2NC(=O)[C@H](CCCCN)NC(=O)[C@H](CCC(=O)O)NC(=O)[C@H](Cc3ccccc3)NC(=O)[C@H](CCCNC(=N)N)NC(=O)[C@H](CCSC)NC(=O)CNC(=O)[C@H](C)NC(=O)[C@H](CCCCN)NC(=O)[C@H](CCCCN)NC(=O)[C@@H]3CSSC[C@@H](C(=O)N[C@H](C(=O)N4CCC[C@H]4C(=O)N[C@@H](CCCCN)C(=O)O)[C@@H](C)O)NC(=O)[C@H](Cc4c[nH]cn4)NC(=O)[C@H](CSSC[C@H](NC(=O)[C@H](CCC(N)=O)NC(=O)[C@H](CCCNC(=N)N)NC(=O)[C@H](CO)NC1=O)C(=O)N[C@@H](CC(C)C)C(=O)N[C@@H](CCC(=O)O)C(=O)N1CCC[C@H]1C(=O)N3)NC(=O)[C@H](CCCCN)NC(=O)CNC(=O)[C@H](CC(N)=O)NC(=O)[C@H](CCSC)NC2=O` [G26E] (H-GVIINVKCKISRQCLEPCKKAGMRFEKCMNGKCHCTPK-OH; disulfide 8-28, 14-33, 18-35) was tested, and the IC50 [1] was > 3.33 nM and the IC50 [2] was > 3.33 nM.
With `CC[C@H](C)[C@@H]1NC(=O)[C@H](CCCCN)NC(=O)[C@@H](NC(=O)[C@H](CCCCN)NC(=O)[C@@H](NC(=O)[C@H](CC(N)=O)NC(=O)[C@@H](NC(=O)[C@@H](NC(=O)[C@@H](NC(=O)CN)C(C)C)[C@@H](C)CC)[C@@H](C)CC)C(C)C)CSSC[C@@H]2NC(=O)[C@H](CCCCN)NC(=O)[C@H](CCCNC(=N)N)NC(=O)[C@H](Cc3ccccc3)NC(=O)[C@H](CCCNC(=N)N)NC(=O)[C@H](CCSC)NC(=O)CNC(=O)[C@H](C)NC(=O)[C@H](CCCCN)NC(=O)[C@H](CCCCN)NC(=O)[C@@H]3CSSC[C@@H](C(=O)N[C@H](C(=O)N4CCC[C@H]4C(=O)N[C@@H](CCCCN)C(=O)O)[C@@H](C)O)NC(=O)[C@H](Cc4c[nH]cn4)NC(=O)[C@H](CSSC[C@H](NC(=O)[C@H](CCC(N)=O)NC(=O)[C@H](CCCNC(=N)N)NC(=O)[C@H](CO)NC1=O)C(=O)N[C@@H](CC(C)C)C(=O)N[C@@H](CCC(=O)O)C(=O)N1CCC[C@H]1C(=O)N3)NC(=O)[C@H](CCCCN)NC(=O)CNC(=O)[C@H](CC(N)=O)NC(=O)[C@H](CCSC)NC2=O` [G26R] (H-GVIINVKCKISRQCLEPCKKAGMRFRKCMNGKCHCTPK-OH; disulfide 8-28, 14-33, 18-35) the IC50 [1] was > 3.33 nM and the IC50 [2] was > 3.33 nM.
Work on `CC[C@H](C)[C@@H]1NC(=O)[C@H](CCCCN)NC(=O)[C@@H](NC(=O)[C@H](CCCCN)NC(=O)[C@@H](NC(=O)[C@H](CC(N)=O)NC(=O)[C@@H](NC(=O)[C@@H](NC(=O)[C@@H](NC(=O)CN)C(C)C)[C@@H](C)CC)[C@@H](C)CC)C(C)C)CSSC[C@@H]2NC(=O)[C@H](CCCCN)NC(=O)CNC(=O)[C@H](Cc3ccccc3)NC(=O)[C@H](CCCNC(=N)N)NC(=O)[C@H](CCSC)NC(=O)CNC(=O)[C@H](C)NC(=O)[C@H](CCCCN)NC(=O)[C@H](CCCCN)NC(=O)[C@@H]3CSSC[C@@H](C(=O)N[C@H](C(=O)N4CCC[C@H]4C(=O)N[C@@H](CCCCN)C(=O)O)[C@@H](C)O)NC(=O)[C@H](Cc4c[nH]cn4)NC(=O)[C@H](CSSC[C@H](NC(=O)[C@H](CCC(N)=O)NC(=O)[C@H](CCCNC(=N)N)NC(=O)[C@H](CO)NC1=O)C(=O)N[C@@H](CC(C)C)C(=O)N[C@@H](CCC(=O)O)C(=O)N1CCC[C@H]1C(=O)N3)NC(=O)[C@H](CCCCN)NC(=O)[C@H](C)NC(=O)[C@H](CC(N)=O)NC(=O)[C@H](CCSC)NC2=O` [G31A] (H-GVIINVKCKISRQCLEPCKKAGMRFGKCMNAKCHCTPK-OH; disulfide 8-28, 14-33, 18-35) yielded an IC50 [1] of 0.0702 nM and an IC50 [2] of 0.0618 nM.
Work on `CC[C@H](C)[C@@H]1NC(=O)[C@H](CCCCN)NC(=O)[C@@H](NC(=O)[C@H](CCCCN)NC(=O)[C@@H](NC(=O)[C@H](CC(N)=O)NC(=O)[C@@H](NC(=O)[C@@H](NC(=O)[C@@H](NC(=O)CN)C(C)C)[C@@H](C)CC)[C@@H](C)CC)C(C)C)CSSC[C@@H]2NC(=O)[C@H](CCCCN)NC(=O)CNC(=O)[C@H](Cc3ccccc3)NC(=O)[C@H](CCCNC(=N)N)NC(=O)[C@H](CCSC)NC(=O)CNC(=O)[C@H](C)NC(=O)[C@H](CCCCN)NC(=O)[C@H](CCCCN)NC(=O)[C@@H]3CSSC[C@@H](C(=O)N[C@H](C(=O)N4CCC[C@H]4C(=O)N[C@@H](CCCCN)C(=O)O)[C@@H](C)O)NC(=O)[C@H](Cc4c[nH]cn4)NC(=O)[C@H](CSSC[C@H](NC(=O)[C@H](CCC(N)=O)NC(=O)[C@H](CCCNC(=N)N)NC(=O)[C@H](CO)NC1=O)C(=O)N[C@@H](CC(C)C)C(=O)N[C@@H](CCC(=O)O)C(=O)N1CCC[C@H]1C(=O)N3)NC(=O)[C@H](CCCCN)NC(=O)[C@H](CCC(=O)O)NC(=O)[C@H](CC(N)=O)NC(=O)[C@H](CCSC)NC2=O` [G31E] (H-GVIINVKCKISRQCLEPCKKAGMRFGKCMNEKCHCTPK-OH; disulfide 8-28, 14-33, 18-35) yielded an IC50 [1] of 0.012 nM and an IC50 [2] of 0.00237 nM.
Work on `CC[C@H](C)[C@@H]1NC(=O)[C@H](CCCCN)NC(=O)[C@@H](NC(=O)[C@H](CCCCN)NC(=O)[C@@H](NC(=O)[C@H](CC(N)=O)NC(=O)[C@@H](NC(=O)[C@@H](NC(=O)[C@@H](NC(=O)CN)C(C)C)[C@@H](C)CC)[C@@H](C)CC)C(C)C)CSSC[C@@H]2NC(=O)[C@H](CCCCN)NC(=O)CNC(=O)[C@H](Cc3ccccc3)NC(=O)[C@H](CCCNC(=N)N)NC(=O)[C@H](CCSC)NC(=O)CNC(=O)[C@H](C)NC(=O)[C@H](CCCCN)NC(=O)[C@H](CCCCN)NC(=O)[C@@H]3CSSC[C@@H](C(=O)N[C@H](C(=O)N4CCC[C@H]4C(=O)N[C@@H](CCCCN)C(=O)O)[C@@H](C)O)NC(=O)[C@H](Cc4c[nH]cn4)NC(=O)[C@H](CSSC[C@H](NC(=O)[C@H](CCC(N)=O)NC(=O)[C@H](CCCNC(=N)N)NC(=O)[C@H](CO)NC1=O)C(=O)N[C@@H](CC(C)C)C(=O)N[C@@H](CCC(=O)O)C(=O)N1CCC[C@H]1C(=O)N3)NC(=O)[C@H](CCCCN)NC(=O)[C@H](CCCNC(=N)N)NC(=O)[C@H](CC(N)=O)NC(=O)[C@H](CCSC)NC2=O` [G31R] yielded an IC50 [1] of 0.0222 nM and an IC50 [2] of 0.00159 nM.
Work on `CC[C@H](C)[C@@H]1NC(=O)[C@H](CCCCN)NC(=O)[C@@H](NC(=O)[C@H](CCCCN)NC(=O)[C@@H](NC(=O)[C@H](CC(N)=O)NC(=O)[C@@H](NC(=O)[C@@H](NC(=O)[C@@H](NC(=O)CN)C(C)C)[C@@H](C)CC)[C@@H](C)CC)C(C)C)CSSC[C@@H]2NC(=O)[C@H](CCCCN)NC(=O)CNC(=O)[C@H](Cc3ccccc3)NC(=O)[C@H](CCCNC(=N)N)NC(=O)[C@H](CCSC)NC(=O)CNC(=O)[C@H](C)NC(=O)[C@H](CCCCN)NC(=O)[C@H](CCCCN)NC(=O)[C@@H]3CSSC[C@@H](C(=O)N[C@H](C(=O)N4CCC[C@H]4C(=O)N[C@@H](CCCCN)C(=O)O)[C@@H](C)O)NC(=O)[C@H](CCCNC(=N)N)NC(=O)[C@H](CSSC[C@H](NC(=O)[C@H](CCC(N)=O)NC(=O)[C@H](CCCNC(=N)N)NC(=O)[C@H](CO)NC1=O)C(=O)N[C@@H](CC(C)C)C(=O)N[C@@H](CCC(=O)O)C(=O)N1CCC[C@H]1C(=O)N3)NC(=O)[C@H](CCCCN)NC(=O)CNC(=O)[C@H](CC(N)=O)NC(=O)[C@H](CCSC)NC2=O` [H34R] (H-GVIINVKCKISRQCLEPCKKAGMRFGKCMNGKCRCTPK-OH; disulfide 8-28, 14-33, 18-35) yielded an IC50 [1] of 0.0136 nM and an IC50 [2] of 0.00449 nM.
`CC[C@H](C)[C@H](NC(=O)[C@H](C)NC(=O)[C@@H](NC(=O)CN)C(C)C)C(=O)N[C@@H](CC(N)=O)C(=O)N[C@H](C(=O)N[C@@H](CCCCN)C(=O)N[C@H]1CSSC[C@@H]2NC(=O)[C@H](CCCCN)NC(=O)CNC(=O)[C@H](Cc3ccccc3)NC(=O)[C@H](CCCNC(=N)N)NC(=O)[C@H](CCSC)NC(=O)CNC(=O)[C@H](C)NC(=O)[C@H](CCCCN)NC(=O)[C@H](CCCCN)NC(=O)[C@@H]3CSSC[C@@H](C(=O)N[C@H](C(=O)N4CCC[C@H]4C(=O)N[C@@H](CCCCN)C(=O)O)[C@@H](C)O)NC(=O)[C@H](Cc4c[nH]cn4)NC(=O)[C@H](CSSC[C@H](NC(=O)[C@H](CCC(N)=O)NC(=O)[C@H](CCCNC(=N)N)NC(=O)[C@H](CO)NC(=O)[C@H]([C@@H](C)CC)NC(=O)[C@H](CCCCN)NC1=O)C(=O)N[C@@H](CC(C)C)C(=O)N[C@@H](CCC(=O)O)C(=O)N1CCC[C@H]1C(=O)N3)NC(=O)[C@H](CCCCN)NC(=O)CNC(=O)[C@H](CC(N)=O)NC(=O)[C@H](CCSC)NC2=O)C(C)C` [I3A] (H-GVAINVKCKISRQCLEPCKKAGMRFGKCMNGKCHCTPK-OH; disulfide 8-28, 14-33, 18-35) showed an IC50 [1] of 0.0966 nM and an IC50 [2] of 0.0106 nM.
For `CC[C@H](C)[C@@H]1NC(=O)[C@H](CCCCN)NC(=O)[C@@H](NC(=O)[C@H](CCCCN)NC(=O)[C@@H](NC(=O)[C@H](CC(N)=O)NC(=O)[C@@H](NC(=O)[C@H](CCC(=O)O)NC(=O)[C@@H](NC(=O)CN)C(C)C)[C@@H](C)CC)C(C)C)CSSC[C@@H]2NC(=O)[C@H](CCCCN)NC(=O)CNC(=O)[C@H](Cc3ccccc3)NC(=O)[C@H](CCCNC(=N)N)NC(=O)[C@H](CCSC)NC(=O)CNC(=O)[C@H](C)NC(=O)[C@H](CCCCN)NC(=O)[C@H](CCCCN)NC(=O)[C@@H]3CSSC[C@@H](C(=O)N[C@H](C(=O)N4CCC[C@H]4C(=O)N[C@@H](CCCCN)C(=O)O)[C@@H](C)O)NC(=O)[C@H](Cc4c[nH]cn4)NC(=O)[C@H](CSSC[C@H](NC(=O)[C@H](CCC(N)=O)NC(=O)[C@H](CCCNC(=N)N)NC(=O)[C@H](CO)NC1=O)C(=O)N[C@@H](CC(C)C)C(=O)N[C@@H](CCC(=O)O)C(=O)N1CCC[C@H]1C(=O)N3)NC(=O)[C@H](CCCCN)NC(=O)CNC(=O)[C@H](CC(N)=O)NC(=O)[C@H](CCSC)NC2=O` [I3E] (H-GVEINVKCKISRQCLEPCKKAGMRFGKCMNGKCHCTPK-OH; disulfide 8-28, 14-33, 18-35), the IC50 [1] was 0.022 nM and the IC50 [2] was 0.043 nM.
